Assays:
[1] = molecular target: T1, Aldehyde dehydrogenase, dimeric NADP-preferring (Homo sapiens, UniProt P30838); assay: Inhibition of full length recombinant human ALDH3A1 expressed in Escherichia coli BL21(DE3) assessed as reduction in dehydrogenase activity by measuring NAD(P)H level preincubated for 2 mins followed by addition of benzaldehyde as substrate in presence of NADP+ by spectrophotometric method
T1 sequence (P30838 whole entry): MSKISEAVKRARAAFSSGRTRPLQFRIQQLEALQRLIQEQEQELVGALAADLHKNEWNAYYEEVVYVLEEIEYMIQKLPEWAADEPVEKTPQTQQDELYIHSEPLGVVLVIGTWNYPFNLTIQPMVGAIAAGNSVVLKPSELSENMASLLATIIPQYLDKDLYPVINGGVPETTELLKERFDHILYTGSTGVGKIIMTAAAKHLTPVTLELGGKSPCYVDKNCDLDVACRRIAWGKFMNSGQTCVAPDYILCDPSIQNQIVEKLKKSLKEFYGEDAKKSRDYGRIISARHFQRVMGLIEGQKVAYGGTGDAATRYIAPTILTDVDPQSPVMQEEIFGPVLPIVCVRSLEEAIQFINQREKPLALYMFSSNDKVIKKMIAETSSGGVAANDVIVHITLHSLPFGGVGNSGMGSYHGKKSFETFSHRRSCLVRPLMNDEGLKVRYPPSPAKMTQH

[2] = molecular target: T2, Aldehyde dehydrogenase 1A1 (Homo sapiens) (UniProt P00352); assay: Inhibition of full length recombinant human ALDH1A1 expressed in Escherichia coli BL21(DE3) assessed as remaining dehydrogenase activity by measuring NAD(P)H level at 10 uM preincubated for 2 mins followed by addition of propionaldehyde as substrate in presence of NAD+ by spectrophotometric method
T2 sequence (whole entry): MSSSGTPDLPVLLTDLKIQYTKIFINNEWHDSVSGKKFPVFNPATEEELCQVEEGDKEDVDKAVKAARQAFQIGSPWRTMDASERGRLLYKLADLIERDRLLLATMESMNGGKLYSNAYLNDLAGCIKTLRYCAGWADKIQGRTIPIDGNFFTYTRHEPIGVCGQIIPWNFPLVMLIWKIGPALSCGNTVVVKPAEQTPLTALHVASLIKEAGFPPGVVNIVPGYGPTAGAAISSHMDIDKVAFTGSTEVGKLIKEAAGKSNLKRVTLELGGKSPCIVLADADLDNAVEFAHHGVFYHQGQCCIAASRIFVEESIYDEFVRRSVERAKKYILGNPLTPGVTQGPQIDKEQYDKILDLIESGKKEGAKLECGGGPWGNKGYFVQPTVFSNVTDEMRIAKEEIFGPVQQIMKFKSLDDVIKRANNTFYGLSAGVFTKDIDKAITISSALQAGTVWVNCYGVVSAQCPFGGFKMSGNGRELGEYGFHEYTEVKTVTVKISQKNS

[3] = molecular target: T3, Aldehyde dehydrogenase, mitochondrial (Homo sapiens) (UniProt P05091); assay: Inhibition of full length recombinant human ALDH2 expressed in Escherichia coli assessed as remaining dehydrogenase activity by measuring NAD(P)H level at 10 uM preincubated for 2 mins followed by addition of propionaldehyde as substrate in presence of NAD+ by spectrophotometric method
T3 sequence (whole entry): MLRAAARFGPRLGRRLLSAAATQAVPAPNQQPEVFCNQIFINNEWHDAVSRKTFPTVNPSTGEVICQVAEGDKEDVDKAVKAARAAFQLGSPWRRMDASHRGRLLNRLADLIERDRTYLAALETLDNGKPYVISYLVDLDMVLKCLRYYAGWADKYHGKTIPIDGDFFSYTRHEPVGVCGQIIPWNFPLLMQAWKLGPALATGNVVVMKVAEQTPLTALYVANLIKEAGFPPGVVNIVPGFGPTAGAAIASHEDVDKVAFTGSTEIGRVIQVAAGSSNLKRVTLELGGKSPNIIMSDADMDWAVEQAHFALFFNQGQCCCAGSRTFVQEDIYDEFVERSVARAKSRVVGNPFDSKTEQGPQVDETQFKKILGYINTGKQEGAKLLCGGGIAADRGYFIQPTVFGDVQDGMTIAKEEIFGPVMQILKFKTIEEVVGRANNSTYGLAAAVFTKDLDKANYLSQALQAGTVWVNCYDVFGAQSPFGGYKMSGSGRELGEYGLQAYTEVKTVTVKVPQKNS

[4] = molecular target: T4, Aldehyde dehydrogenase, dimeric NADP-preferring (Homo sapiens) (UniProt P30838); assay: Inhibition of full length recombinant human ALDH3A1 expressed in Escherichia coli BL21(DE3) assessed as remaining dehydrogenase activity by measuring NAD(P)H level at 10 uM preincubated for 2 mins followed by addition of propionaldehyde as substrate in presence of NAD+ by spectrophotometric method
T4 sequence (whole entry): T1 sequence (P30838 whole entry)

[5] = Lipophilicity, log P of the compound; assay type: physicochemical; settings: octanol/water
[6] = molecular target: T5, Aldehyde dehydrogenase X, mitochondrial (Homo sapiens, UniProt P30837)
T5 sequence (P30837 whole entry): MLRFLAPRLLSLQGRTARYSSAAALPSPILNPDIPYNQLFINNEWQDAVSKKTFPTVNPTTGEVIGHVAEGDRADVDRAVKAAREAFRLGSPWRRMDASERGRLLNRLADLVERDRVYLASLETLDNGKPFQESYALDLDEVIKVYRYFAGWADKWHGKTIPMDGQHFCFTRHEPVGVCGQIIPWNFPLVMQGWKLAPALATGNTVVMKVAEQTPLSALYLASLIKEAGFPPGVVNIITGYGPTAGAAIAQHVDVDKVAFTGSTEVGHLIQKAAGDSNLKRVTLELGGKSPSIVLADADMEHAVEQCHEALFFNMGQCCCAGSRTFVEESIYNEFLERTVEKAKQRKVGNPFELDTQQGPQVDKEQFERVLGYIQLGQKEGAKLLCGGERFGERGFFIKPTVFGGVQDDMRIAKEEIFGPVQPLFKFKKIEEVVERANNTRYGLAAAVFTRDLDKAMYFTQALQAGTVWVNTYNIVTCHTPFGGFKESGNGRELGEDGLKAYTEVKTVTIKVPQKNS
Description: Inhibition of full length recombinant human ALDH1B1 expressed in Escherichia coli TunerDE3 assessed as reduction in dehydrogenase activity by measuring NAD(P)H level preincubated for 2 mins followed by addition of propionaldehyde as substrate in presence of NAD+ by spectrophotometric method

Retinal dehydrogenase 2 = molecular target: T6, Retinal dehydrogenase 2 (Homo sapiens, UniProt O94788)
T6 sequence (O94788 whole entry): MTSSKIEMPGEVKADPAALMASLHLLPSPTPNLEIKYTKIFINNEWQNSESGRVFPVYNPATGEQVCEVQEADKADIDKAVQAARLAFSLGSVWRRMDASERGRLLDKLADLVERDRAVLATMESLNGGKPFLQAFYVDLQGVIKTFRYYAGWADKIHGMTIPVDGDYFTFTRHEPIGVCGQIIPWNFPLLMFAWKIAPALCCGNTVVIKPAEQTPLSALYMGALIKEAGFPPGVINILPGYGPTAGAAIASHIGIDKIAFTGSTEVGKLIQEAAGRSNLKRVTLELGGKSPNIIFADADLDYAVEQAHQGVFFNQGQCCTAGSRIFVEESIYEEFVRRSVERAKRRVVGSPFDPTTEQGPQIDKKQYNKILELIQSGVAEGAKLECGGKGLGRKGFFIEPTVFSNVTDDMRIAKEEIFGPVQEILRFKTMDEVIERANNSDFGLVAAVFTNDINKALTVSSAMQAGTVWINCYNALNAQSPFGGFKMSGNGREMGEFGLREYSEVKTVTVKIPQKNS
Description: Inhibition of full length recombinant human ALDH1A2 expressed in Escherichia coli BL21(DE3) assessed as reduction in dehydrogenase activity by measuring NAD(P)H level preincubated for 2 mins followed by addition of propionaldehyde as substrate in presence of NAD+ by spectrophotometric method

SMILES	IC50 [1]	Activity [2] [%]	Activity [3] [%]	Activity [4] [%]	logP [5]	IC50 [6] [nM]	IC50 (Retinal dehydrogenase 2) [nM]
Cc1oc2cc3oc(=O)c(CCC(=O)N4CCCCC4)c(C)c3cc2c1C	Not Active	8.69	3.8	105	4.06	2600	1600
Cc1oc2cc3oc(=O)c(C)c(C)c3cc2c1C	Not Active	90.5	19.5	95.3	4.39	310	330
CCCc1cc(=O)oc2cc3oc(C)c(C)c3cc12	Not Active	74.1	23.8	80.4	4.47	86	69
CCCc1c(C)c2cc3c(C)coc3cc2oc1=O	Not Active	48.6	6.25	96.1	4.47	880	760
C/C(=N\O)c1cc2cc(Br)ccc2oc1=O	Not Active	96	48.2	91.7	2.1	–	–
CCCc1c(C)c2cc3c(C)c(C)oc3cc2oc1=O	Not Active	36.3	1.61	86.3	4.92	360	300
Cc1oc2cc3oc(=O)c4c(c3cc2c1C)CCC4	Not Active	50.8	8.25	87.1	4.26	160	130
COC(=O)C(C)Oc1ccc2c(C)cc(=O)oc2c1 (stereo unspecified)	Not Active	84.8	5.72	–	1.9	–	–

From ChEMBL document CHEMBL4007427, “Inhibition of the Aldehyde Dehydrogenase 1/2 Family by Psoralen and Coumarin Derivatives” (J Med Chem, 2017)
